From patent publication US20260297042A1, “BIARYLAMIDE DERIVATIVES AND THEIR USE AS PKMYT1 INHIBITORS” (CANCER RESEARCH TECHNOLOGY LIMITED, priority 2023, published 2026)

Assays:
Human PKMYT1 = molecular target: T1, Human PKMYT1 (Homo sapiens, UniProt Q99640); assay: PKMYT1 biochemical ADP-Glo enzymatic assay; conditions: PKMYT1 kinase domain 15 nM; ADP-Glo; banded values
T1 construct: Human PKMYT1 75-362 was cloned as a TEV cleavable 6xHis fusion; 6xHis (TEV cleavable) (cleaved yes); made in house; host or cells: bacterial cells
T1 sequence (Q99640 75-362): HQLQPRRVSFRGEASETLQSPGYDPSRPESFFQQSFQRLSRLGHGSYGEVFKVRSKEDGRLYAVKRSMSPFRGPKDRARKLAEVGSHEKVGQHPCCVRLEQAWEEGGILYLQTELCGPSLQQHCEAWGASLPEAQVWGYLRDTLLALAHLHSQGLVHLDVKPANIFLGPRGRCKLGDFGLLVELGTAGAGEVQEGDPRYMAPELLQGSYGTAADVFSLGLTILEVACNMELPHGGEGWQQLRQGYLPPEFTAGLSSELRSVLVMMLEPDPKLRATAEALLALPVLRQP
How it was run: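 Luminescent ADP-Glo Max read-out of ADP produced by 15 nM PKMYT1 (residues 75-362, bacterial, His-tag removed) from 500 µM ATP without peptide substrate. Reaction: 50 mM HEPES pH 7.5, 10 mM MgCl2, 1 mM EGTA, 0.01% Brij-35, 60 min, 26 °C. IC50 values fitted from 10-point curves.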

WEE1 = molecular target: T2, WEE1 (Homo sapiens, UniProt P30291); assay: Selectivity versus WEE1 assay (ADP-Glo enzymatic assay); format: biochemical; conditions: for IC50: WEE1 15 nM, ADP-Glo, banded values; for PKMYT1 vs. WEE1 selectivity: fold difference in selectivity for PKMYT1 over WEE1, banded
T2 construct: purchased Thermo Fisher PR7373A
T2 sequence (P30291 whole entry): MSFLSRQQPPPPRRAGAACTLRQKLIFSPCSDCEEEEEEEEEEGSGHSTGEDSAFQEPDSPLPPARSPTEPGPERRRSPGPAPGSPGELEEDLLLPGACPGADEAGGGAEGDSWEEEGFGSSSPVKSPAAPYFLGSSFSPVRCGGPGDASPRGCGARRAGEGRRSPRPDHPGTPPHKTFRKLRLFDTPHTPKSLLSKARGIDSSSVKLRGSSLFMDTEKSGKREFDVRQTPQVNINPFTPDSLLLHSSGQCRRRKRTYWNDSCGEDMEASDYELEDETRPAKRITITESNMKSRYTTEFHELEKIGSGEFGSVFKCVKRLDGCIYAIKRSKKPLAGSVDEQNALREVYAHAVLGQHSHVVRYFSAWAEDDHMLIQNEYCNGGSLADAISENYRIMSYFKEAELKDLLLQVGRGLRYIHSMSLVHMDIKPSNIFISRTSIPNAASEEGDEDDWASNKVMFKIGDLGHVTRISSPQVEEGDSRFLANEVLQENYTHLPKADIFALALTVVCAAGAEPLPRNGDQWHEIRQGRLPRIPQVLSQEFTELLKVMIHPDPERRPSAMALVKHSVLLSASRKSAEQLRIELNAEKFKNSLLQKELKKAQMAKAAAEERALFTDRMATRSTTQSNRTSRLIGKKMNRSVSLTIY
How it was run: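 ADP-Glo luminescence read-out after a 60 min reaction at 26° C, initiated by 30 µM ATP, with 15 nM enzyme in HEPES pH 7.5/MgCl2/EGTA/Brij-35 buffer containing 1% DMSO. Replicate IC50 values had to agree within 3-fold and fits needed r2 >0.9.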

SMILES | IC50 (Human PKMYT1) [µM] | IC50 (WEE1) [µM] | PKMYT1 vs. WEE1 selectivity (WEE1)
Cn1ccc(Nc2ncc(C(=O)Nc3c(Cl)ccc(O)c3F)s2)n1 [BAA-479, N-(6-Chloro-2-fluoro-3-hydroxyphenyl)-2-((1-methyl-1H-pyrazol-3-yl)amino)thiazole-5-carboxamide] | 0.05 to 1 | > 11 | W (10-<100 fold)
Cn1ccc(Nc2ncc(C(=O)Nc3c(F)ccc(O)c3Cl)s2)n1 [BAA-480, N-(2-Chloro-6-fluoro-3-hydroxyphenyl)-2-((1-methyl-1H-pyrazol-3-yl)amino)thiazole-5-carboxamide] | 0.05 to 1 | > 11 | X (100-<1000 fold)
Cc1ccccc1Nc1ncc(C(=O)Nc2c(C)ccc(O)c2C)s1 [BAA-483, N-(3-hydroxy-2,6-dimethylphenyl)-2-(o-tolylamino)thiazole-5-carboxamide] | 0.05 to 1 | > 11 | X (100-<1000 fold)
CCc1ccccc1Nc1ncc(C(=O)Nc2c(C)ccc(O)c2C)s1 [BAA-484, 2-((2-ethylphenyl)amino)-N-(3-hydroxy-2,6-dimethylphenyl)thiazole-5-carboxamide] | 0.05 to 1 | > 11 | X (100-<1000 fold)
Cc1ccc(O)c(C)c1NC(=O)c1cnc(Nc2cccc3ncsc23)s1 [BAA-485, 2-(benzo[d]thiazol-7-ylamino)-N-(3-hydroxy-2,6-dimethylphenyl)thiazole-5-carboxamide] | < 0.05 | > 11 | X (100-<1000 fold)
Cc1ccc(O)c(C)c1NC(=O)c1cnc(Nc2cccc3scnc23)s1 [BAA-486, 2-(benzo[d]thiazol-4-ylamino)-N-(3-hydroxy-2,6-dimethylphenyl)thiazole-5-carboxamide] | 0.05 to 1 | > 11 | X (100-<1000 fold)
Cc1ccc(O)c(C)c1NC(=O)c1cnc(Nc2cccc3cccnc23)s1 [BAA-487, N-(3-hydroxy-2,6-dimethylphenyl)-2-(quinolin-8-ylamino) thiazole-5-carboxamide] | 0.05 to 1 | > 11 | X (100-<1000 fold)
Cc1ccc(O)c(C)c1NC(=O)c1cnc(Nc2nn(C)cc2C#N)s1 [BAA-496, 2-((4-cyano-1-methyl-1H-pyrazol-3-yl)amino)-N-(3-hydroxy-2,6-dimethylphenyl)thiazole-5-carboxamide] | < 0.05 | > 11 | Y (1000-5000 fold)
Cc1c(O)ccc(Br)c1NC(=O)c1cnc(Nc2ccn(C)n2)s1 [BAA-498, N-(6-bromo-3-hydroxy-2-methylphenyl)-2-((1-methyl-1H-pyrazol-3-yl)amino)thiazole-5-carboxamide] | 0.05 to 1 | 1 to 11 | W (10-<100 fold)
Cc1cn(CCN(C)C)nc1Nc1ncc(C(=O)Nc2c(C)ccc(O)c2C)s1 [BAA-501, 2-((1-(2-(dimethylamino)ethyl)-4-methyl-1H-pyrazol-3-yl)amino)-N-(3-hydroxy-2,6-dimethylphenyl)thiazole-5-carboxamide] | 0.05 to 1 | > 11 | W (10-<100 fold)
CCOc1ccc(Nc2ncc(C(=O)Nc3c(C)ccc(O)c3C)s2)cc1 [BAA-503, 2-((4-ethoxyphenyl)amino)-N-(3-hydroxy-2,6-dimethylphenyl)thiazole-5-carboxamide] | 0.05 to 1 | 1 to 11 | W (10-<100 fold)
CC(=O)Nc1ccc(Nc2ncc(C(=O)Nc3c(C)ccc(O)c3C)s2)cc1 [BAA-513, 2-((4-Acetamidophenyl)amino)-N-(3-hydroxy-2,6-dimethylphenyl)thiazole-5-carboxamide] | < 0.05 | 1 to 11 | X (100-<1000 fold)
Cc1cn(CC(=O)N(C)CC(F)(F)F)nc1Nc1ncc(C(=O)Nc2c(C)ccc(O)c2C)s1 [BAA-514, N-(3-hydroxy-2,6-dimethylphenyl)-2-((4-methyl-1-(2-(methyl(2,2,2-trifluoroethyl)amino)-2-oxoethyl)-1H-pyrazol-3-yl)amino)thiazole-5-carboxamide] | < 0.05 | 1 to 11 | X (100-<1000 fold)
Cc1ccc(O)c(C)c1NC(=O)c1cnc(Nc2ccc3c(c2)NC(=O)CO3)s1 [BAA-515, N-(3-hydroxy-2,6-dimethylphenyl)-2-((3-oxo-3,4-dihydro-2H-benzo[b][1,4]oxazin-6-yl)amino)thiazole-5-carboxamide] | < 0.05 | 1 to 11 | X (100-<1000 fold)

Next, values leading:

IC50 (Human PKMYT1) [µM] | IC50 (WEE1) [µM] | PKMYT1 vs. WEE1 selectivity (WEE1) | SMILES
< 0.05 | > 11 | Y (1000-5000 fold) | CCc1c(O)ccc(C)c1NC(=O)c1cnc(Nc2ccn(CC(=O)N3CCCC3)n2)s1 [BAA-475, N-(2-ethyl-3-hydroxy-6-methylphenyl)-2-((1-(2-oxo-2-(pyrrolidin-1-yl)ethyl)-1H-pyrazol-3-yl)amino) thiazole-5-carboxamide]
< 0.05 | 1 to 11 | X (100-<1000 fold) | Cc1ccc(O)c(Br)c1NC(=O)c1cnc(Nc2ccn(CC(=O)N3CCCC3)n2)s1 [BAA-476]
< 0.05 | > 11 | Y (1000-5000 fold) | O=C(Nc1c(Cl)ccc(O)c1F)c1cnc(Nc2ccn(CC(=O)N3CCCC3)n2)s1 [BAA-481, N-(6-Chloro-2-fluoro-3-hydroxy-phenyl)-2-[[1-(2-oxo-2-pyrrolidin-1-yl-ethyl)pyrazol-3-yl]amino]thiazole-5-carboxamide]
< 0.05 | > 11 | Y (1000-5000 fold) | O=C(Nc1c(F)ccc(O)c1Cl)c1cnc(Nc2ccn(CC(=O)N3CCCC3)n2)s1 [BAA-482, N-(2-chloro-6-fluoro-3-hydroxyphenyl)-2-((1-(2-oxo-2-(pyrrolidin-1-yl)ethyl)-1H-pyrazol-3-yl)amino) thiazole-5-carboxamide]
0.05 to 1 | > 11 | X (100-<1000 fold) | Cc1ccc(O)c(C)c1NC(=O)c1cnc(Nc2cc(Br)n(C)n2)s1 [BAA-494, 2-((5-Bromo-1-methyl-1H-pyrazol-3-yl)amino)-N-(3-hydroxy-2,6-dimethylphenyl)thiazole-5-carboxamide]
< 0.05 | > 11 | X (100-<1000 fold) | Cc1cn(C(C)C(=O)N2CCN(C)CC2)nc1Nc1ncc(C(=O)Nc2c(C)ccc(O)c2C)s1 (stereo not drawn) [BAA-500, N-(3-hydroxy-2,6-dimethylphenyl)-2-((4-methyl-1-(1-(4-methylpiperazin-1-yl)-1-oxopropan-2-yl)-1H-pyrazol-3-yl)amino)thiazole-5-carboxamide]
0.05 to 1 | 1 to 11 | W (10-<100 fold) | Cc1ccc(O)c(C)c1NC(=O)c1cnc(Nc2cc(C#N)n(C)n2)s1 [BAA-505, 2-((5-cyano-1-methyl-1H-pyrazol-3-yl)amino)-N-(3-hydroxy-2,6-dimethylphenyl)thiazole-5-carboxamide]
< 0.05 | > 11 | X (100-<1000 fold) | CCC(C(=O)N(C)C)n1ccc(Nc2ncc(C(=O)Nc3c(C)ccc(O)c3C)s2)n1 (stereo not drawn) [BAA-507, 2-((1-(1-(dimethylamino)-1-oxobutan-2-yl)-1H-pyrazol-3-yl)amino)-N-(3-hydroxy-2,6-dimethylphenyl)thiazole-5-carboxamide]
0.05 to 1 | > 11 | W (10-<100 fold) | Cc1ccc(O)c(C)c1NC(=O)c1cnc(Nc2cc(C)n(C(C)C(=O)N3CCCC3)n2)s1 (stereo not drawn) [BAA-508, N-(3-hydroxy-2,6-dimethylphenyl)-2-((5-methyl-1-(1-oxo-1-(pyrrolidin-1-yl)propan-2-yl)-1H-pyrazol-3-yl)amino)thiazole-5-carboxamide]
0.05 to 1 | > 11 | W (10-<100 fold) | Cc1ccc(O)c(C)c1NC(=O)c1cnc(Nc2cc(C)n(C(C)C(=O)N3CCN(C)CC3)n2)s1 (stereo not drawn) [BAA-511, N-(3-hydroxy-2,6-dimethylphenyl)-2-((5-methyl-1-(1-(4-methylpiperazin-1-yl)-1-oxopropan-2-yl)-1H-pyrazol-3-yl)amino)thiazole-5-carboxamide]
0.05 to 1 | > 11 | X (100-<1000 fold) | Cc1cc(C)c(NC(=O)c2cnc(Nc3ccn(CC(=O)N4CCCC4)n3)s2)c(C)c1O [BAA-516, N-(3-hydroxy-2,4,6-trimethylphenyl)-2-((1-(2-oxo-2-(pyrrolidin-1-yl)ethyl)-1H-pyrazol-3-yl)amino)thiazole-5-carboxamide]
< 0.05 | 1 to 11 | W (10-<100 fold) | Cc1ccc(O)c(C)c1NC(=O)c1cnc(Nc2cc(C)n(CCC#N)n2)s1 [BAA-518, 2-((1-(2-cyanoethyl)-5-methyl-1H-pyrazol-3-yl)amino)-N-(3-hydroxy-2,6-dimethylphenyl)thiazole-5-carboxamide]
